Columns and labels:
AZD1775 = compound: C=CCn1c(=O)c2cnc(Nc3ccc(N4CCN(C)CC4)cc3)nc2n1-c1cccc(C(C)(C)O)n1 [AZD1775]; details: max 3 µM
How it was run: (§1)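 Plates with 1536 wells received cancer cell lines in 7.5 μl of DMEM/F12 or RPMI containing 10% FBS. After 24 hours at 37°C and 5% CO2, cells were dosed for 72 hours with final DMSO typically 0.2%, and viability was read by CellTiter-Glo 2.0 luminescence scaled between blank-well and DMSO-well means. The single-agent IC50 was taken from a logistic fit of the dose responses made with a non-linear mixed effects model, that logistic curve having two parameters.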

SRA737 = compound: N#Cc1cnc(Nc2cc(NC[C@H]3CNCCO3)c(C(F)(F)F)cn2)cn1 [SRA737]; details: max 10 µM
How it was run: as §1

Lapatinib = compound: CS(=O)(=O)CCNCc1ccc(-c2ccc3ncnc(Nc4ccc(OCc5cccc(F)c5)c(Cl)c4)c3c2)o1 [Lapatinib]; details: max 10 µM
How it was run: as §1

AZD4320 = compound: CN(CC[C@H](CSC1=CC=CC=C1)NC2=C(C=C(C=C2)S(=O)(=O)NC(=O)C3=CC=C(C=C3)N4CCC(CC4)[C@H](C5=CC=CC=C5C6=CC=C(C=C6)Cl)O)S(=O)(=O)C(F)(F)F)CCO [AZD4320]; details: max 1 µM
How it was run: as §1

SN-38 = compound: CCc1c2c(nc3ccc(O)cc13)-c1cc3c(c(=O)n1C2)COC(=O)[C@]3(O)CC [SN-38]; details: max 0.3 µM
How it was run: as §1

Carboplatin = compound: C1CC(C1)(C(=O)[O-])C(=O)[O-].N.N.[Pt+2] [Carboplatin]; details: max 10 µM
How it was run: as §1

Gefitinib = compound: COc1cc2ncnc(Nc3ccc(F)c(Cl)c3)c2cc1OCCCN1CCOCC1 [Gefitinib]; details: max 10 µM
How it was run: as §1

Palbociclib = compound: CC(=O)c1c(C)c2cnc(Nc3ccc(N4CCNCC4)cn3)nc2n(C2CCCC2)c1=O [Palbociclib]; details: max 10 µM
How it was run: as §1

Dasatinib = compound: CC1=C(C(=CC=C1)Cl)NC(=O)C2=CN=C(S2)NC3=CC(=NC(=N3)C)N4CCN(CC4)CCO [Dasatinib]; details: max 2 µM
How it was run: as §1

Trametinib = compound: CC(=O)Nc1cccc(-n2c(=O)n(C3CC3)c(=O)c3c(Nc4ccc(I)cc4F)n(C)c(=O)c(C)c32)c1 [Trametinib]; details: max 1 µM
How it was run: as §1

AZD5363 = compound: C1CN(CCC1(C(=O)N[C@@H](CCO)C2=CC=C(C=C2)Cl)N)C3=NC=NC4=C3C=CN4 [AZD5363]; details: max 10 µM
How it was run: as §1

AZD5153 = compound: COc1nnc2ccc(N3CCC(c4ccc(OCCN5CCN(C)C(=O)[C@H]5C)cc4)CC3)nn12 [AZD5153]; details: max 1 µM
How it was run: as §1

MK-2206 = compound: NC1(c2ccc(-c3nc4ccn5c(=O)[nH]nc5c4cc3-c3ccccc3)cc2)CCC1 [MK-2206]; details: max 10 µM
How it was run: as §1

AZD1390 = compound: CC(C)n1c(=O)n(C)c2cnc3cc(F)c(-c4ccc(OCCCN5CCCCC5)nc4)cc3c21 [AZD1390]; details: max 0.3 µM
How it was run: as §1

Olaparib = compound: O=C(c1cc(Cc2n[nH]c(=O)c3ccccc23)ccc1F)N1CCN(C(=O)C2CC2)CC1 [Olaparib]; details: max 10 µM
How it was run: as §1

[1] = compound: O=C(Nc1ccc2[nH]nc(-c3ccncc3)c2c1)[C@@H]1CCN(CC(=O)N2CCN(c3ccc(-c4ncccn4)cc3)CC2)C1; details: max 5 µM
How it was run: as §1

Savolitinib = compound: C[C@@H](c1ccc2nccn2c1)n1nnc2ncc(-c3cnn(C)c3)nc21 [Savolitinib]; details: max 1 µM
How it was run: as §1

Selumetinib = compound: Cn1cnc2c(F)c(Nc3ccc(Br)cc3Cl)c(C(=O)NOCCO)cc21 [Selumetinib]; details: max 10 µM
How it was run: as §1

Etoposide = compound: COc1cc([C@@H]2c3cc4c(cc3[C@@H](O[C@@H]3O[C@@H]5CO[C@@H](C)O[C@H]5[C@H](O)[C@H]3O)[C@H]3COC(=O)[C@H]23)OCO4)cc(OC)c1O [Etoposide]; details: max 10 µM
How it was run: as §1

Crizotinib = compound: C[C@@H](Oc1cc(-c2cnn(C3CCNCC3)c2)cnc1N)c1c(Cl)ccc(F)c1Cl [Crizotinib]; details: max 10 µM
How it was run: as §1

AZD7648 = compound: Cc1cc2ncnn2cc1Nc1ncc2c(n1)n(C1CCOCC1)c(=O)n2C [AZD7648]; details: max 10 µM
How it was run: as §1

AZD2811 = compound: CCN(CCO)CCCOc1ccc2c(Nc3cc(CC(=O)Nc4cccc(F)c4)[nH]n3)ncnc2c1 [AZD2811]; details: max 1 µM
How it was run: as §1

Gemcitabine = compound: Nc1ccn([C@@H]2O[C@H](CO)[C@@H](O)C2(F)F)c(=O)n1 [Gemcitabine]; details: max 0.3 µM
How it was run: as §1

Venetoclax = compound: CC1(C)CCC(CN2CCN(c3ccc(C(=O)NS(=O)(=O)c4ccc(NCC5CCOCC5)c([N+](=O)[O-])c4)c(Oc4cnc5[nH]ccc5c4)c3)CC2)=C(c2ccc(Cl)cc2)C1 [Venetoclax]; details: max 1 µM
How it was run: as §1

Doxorubicin = compound: COc1cccc2c1C(=O)c1c(O)c3c(c(O)c1C2=O)C[C@@](O)(C(=O)CO)C[C@@H]3O[C@H]1C[C@H](N)[C@H](O)[C@H](C)O1 [Doxorubicin]; details: max 1 µM
How it was run: as §1

AZD8186 = compound: C[C@@H](Nc1cc(F)cc(F)c1)c1cc(C(=O)N(C)C)cc2c(=O)cc(N3CCOCC3)oc12 [AZD8186]; details: max 10 µM
How it was run: as §1

Prexasertib = compound: COc1cccc(OCCCN)c1-c1cc(Nc2cnc(C#N)cn2)n[nH]1 [Prexasertib]; details: max 1 µM
How it was run: as §1

SG3199 = compound: CC1=CN2[C@@H](C1)C=NC3=CC(=C(C=C3C2=O)OC)OCCCCCOC4=C(C=C5C(=C4)N=C[C@@H]6CC(=CN6C5=O)C)OC [SG3199]; details: max 0.001 µM
How it was run: as §1

Alisertib = compound: COc1cc(Nc2ncc3c(n2)-c2ccc(Cl)cc2C(c2c(F)cccc2OC)=NC3)ccc1C(=O)O [Alisertib]; details: max 10 µM
How it was run: as §1

AZD5991 = compound: Cc1c2c(nn1C)CSCc1cc(n(C)n1)CSc1cc(c3ccccc3c1)OCCCc1c(C(=O)O)n(C)c3c-2c(Cl)ccc13 [AZD5991]; details: max 1 µM
How it was run: as §1

AZD0156 = compound: CN(C)CCCOc1ccc(-c2ccc3ncc4c(c3c2)n(C2CCOCC2)c(=O)n4C)cn1 [AZD0156]; details: max 3 µM
How it was run: as §1

Paclitaxel = compound: CC(=O)O[C@H]1C(=O)[C@@]2(C)[C@H]([C@H](OC(=O)c3ccccc3)[C@]3(O)C[C@H](OC(=O)[C@H](O)[C@@H](NC(=O)c4ccccc4)c4ccccc4)C(C)=C1C3(C)C)[C@]1(OC(C)=O)CO[C@@H]1C[C@@H]2O [Paclitaxel]; details: max 3 µM
How it was run: as §1

5-Fluorouracil = compound: O=c1[nH]cc(F)c(=O)[nH]1 [5-Fluorouracil]; details: max 20 µM
How it was run: as §1

Taselisib = compound: Cc1nc(-c2cn3c(n2)-c2ccc(-c4cnn(C(C)(C)C(N)=O)c4)cc2OCC3)n(C(C)C)n1 [Taselisib]; details: max 10 µM
How it was run: as §1

AZD6738 = compound: C[C@@H]1COCCN1C2=NC(=NC(=C2)C3(CC3)[S@](=N)(=O)C)C4=C5C=CNC5=NC=C4 [AZD6738]; details: max 10 µM
How it was run: as §1

MDA-MB-415 (Breast Carcinoma)
IC50, cell viability 72 h (AZD1775): > 3000 nM | IC50, cell viability 72 h (SRA737): > 10000 nM | IC50, cell viability 72 h (Lapatinib): > 10000 nM | IC50, cell viability 72 h (AZD4320): 847 nM | IC50, cell viability 72 h (SN-38): > 300 nM | IC50, cell viability 72 h (Carboplatin): > 10000 nM | IC50, cell viability 72 h (Gefitinib): > 10000 nM | IC50, cell viability 72 h (Palbociclib): > 10000 nM | IC50, cell viability 72 h (Dasatinib): > 2000 nM | IC50, cell viability 72 h (Trametinib): > 1000 nM | IC50, cell viability 72 h (AZD5363): 727 nM | IC50, cell viability 72 h (AZD5153): > 1000 nM | IC50, cell viability 72 h (MK-2206): 1250 nM | IC50, cell viability 72 h (AZD1390): > 300 nM | IC50, cell viability 72 h (Olaparib): > 10000 nM | IC50, cell viability 72 h [1]: > 5000 nM | IC50, cell viability 72 h (Savolitinib): > 1000 nM | IC50, cell viability 72 h (Selumetinib): > 10000 nM | IC50, cell viability 72 h (Etoposide): > 10000 nM | IC50, cell viability 72 h (Crizotinib): > 10000 nM | IC50, cell viability 72 h (AZD7648): > 10000 nM | IC50, cell viability 72 h (AZD2811): > 1000 nM | IC50, cell viability 72 h (Gemcitabine): > 300 nM | IC50, cell viability 72 h (Venetoclax): > 1000 nM | IC50, cell viability 72 h (Doxorubicin): > 1000 nM | IC50, cell viability 72 h (AZD8186): 216 nM | IC50, cell viability 72 h (Prexasertib): > 1000 nM | IC50, cell viability 72 h (SG3199): > 1 nM | IC50, cell viability 72 h (Alisertib): > 10000 nM | IC50, cell viability 72 h (AZD5991): > 1000 nM | IC50, cell viability 72 h (AZD0156): > 3000 nM | IC50, cell viability 72 h (Paclitaxel): 29.8 nM | IC50, cell viability 72 h (5-Fluorouracil): > 20000 nM | IC50, cell viability 72 h (Taselisib): 6010 nM | IC50, cell viability 72 h (AZD6738): > 10000 nM

— the supplement of paper PMC11061612
